Laboratory results as given in patent US20260232767A1, “INTERLEUKIN-23 RECEPTOR ANTAGONIST PEPTIDES FOR USE IN THE TREATMENT OF PSORIASIS” (Janssen Pharmaceutica NV, priority 2023, published 2026).

Tested on: subjects with moderate-to-severe plaque psoriasis
Assay: Safety, adverse events, Example 2 through Week 56
Format: in vivo, human
Source text: The LTE safety analysis was based on randomized participants in Example who entered the present long-term extension study and received at least one dose of study intervention (including a partial dose) during the study period.

[1] = 25 mg BID, Week 16 through Week 56
[2] = 25 mg BID, LTE Safety analysis set

CC(=O)NCCCC[C@@H]1NC(=O)[C@H](Cc2c[nH]c3c(C)cccc23)NC(=O)[C@H]([C@@H](C)O)NC(=O)[C@H](CC(N)=O)NC(=O)[C@@H](NC(C)=O)C(C)(C)SSC(C)(C)[C@@H](C(=O)N[C@@H](Cc2ccc(OCCN)cc2)C(=O)N[C@@H](Cc2ccc3ccccc3c2)C(=O)NC2(C(=O)N[C@@H](CCC(=O)O)C(=O)N[C@@H](CC(N)=O)C(=O)N[C@@H](Cc3cccnc3)C(=O)N(C)CC(N)=O)CCOCC2)NC1=O [IL-23 receptor antagonist peptide, Ac-[Pen]*-N-T-[W(7-Me)]-[Lys(Ac)]-[Pen]*-Phe[4-(2-aminoethoxy)]-[2-Nal]-[THP]-E-N-[3-Pal]-Sarc-NH2 (*[Pen]-[Pen]* formdisulfidebond)]
Subjects with Bronchitis bacterial: 0
Number of subjects with treatment-emergent AE: Cholelithiasis [1]: 0
Number of subjects with treatment-emergent AE: Ear and labyrinth disorders [1]: 0
Number of subjects with treatment-emergent AE: Endocrine disorders [1]: 1
Number of subjects with treatment-emergent AE: Eye disorders [1]: 1
Number of subjects with treatment-emergent AE: Eyelid skin dryness [1]: 1
Number of subjects with treatment-emergent AE: Goiter [1]: 1
Number of subjects with treatment-emergent AE: Hepatobiliary disorders [1]: 0
Number of subjects with treatment-emergent AE: Hypertransaminasemia [1]: 0
Number of subjects with treatment-emergent AE: Immune system disorders [1]: 0
Number of subjects with treatment-emergent AE: Insomnia [1]: 1
Number of subjects with treatment-emergent AE: Ocular cyst [1]: 0
Number of subjects with treatment-emergent AE: Psychiatric disorders [1]: 1
Number of subjects with treatment-emergent AE: Retinal vein occlusion [1]: 0
Number of subjects with treatment-emergent AE: Seasonal allergy [1]: 0
Number of subjects with treatment-emergent AE: Vertigo [1]: 0
Subjects with treatment-emergent AE: Endocrine disorders (%) [1]: (2.5%)
Subjects with treatment-emergent AE: Eye disorders (%) [1]: (2.5%)
Subjects with treatment-emergent AE: Eyelid skin dryness (%) [1]: (2.5%)
Subjects with treatment-emergent AE: Goiter (%) [1]: (2.5%)
Subjects with treatment-emergent AE: Insomnia (%) [1]: (2.5%)
Subjects with treatment-emergent AE: Psychiatric disorders (%) [1]: (2.5%)
Subjects with treatment-emergent AE: Ventricular dysfunction (%) [1]: (2.5%)
Subjects with 1 or more Serious Infections and infestations [2]: 0
Subjects with adverse event: Alanine aminotransferase increased [2]: 0
Subjects with adverse event: Arthralgia [2]: 0
Subjects with adverse event: Aspartate aminotransferase increased [2]: 0
Subjects with adverse event: Vomiting [2]: 0
Subjects with serious adverse event: Cerebrovascular accident [2]: 0
Subjects with serious adverse event: Coronary artery disease [2]: 0
Subjects with serious adverse event: Diverticulitis [2]: 0
Subjects with serious adverse event: Foot deformity [2]: 0
Subjects with serious adverse event: Intervertebral disc protrusion [2]: 0
Subjects with serious adverse event: Non-cardiac chest pain [2]: 0
Subjects with serious adverse event: Uterine leiomyoma [2]: 0
Subjects with AE leading to discontinuation: Alanine aminotransferase increased (25 mg BID, Week 16-56): 0
Subjects with AE leading to discontinuation: Aspartate aminotransferase increased (25 mg BID, Week 16-56): 0
Subjects with AE leading to discontinuation: Ear and labyrinth disorders (25 mg BID, Week 16-56): 0
Subjects with AE leading to discontinuation: Gamma-glutamyltransferase increased (25 mg BID, Week 16-56): 0
Subjects with AE leading to discontinuation: Investigations (25 mg BID, Week 16-56): 0
Subjects with AE leading to discontinuation: Vertigo (25 mg BID, Week 16-56): 0
Subjects with AE leading to discontinuation: Vomiting (25 mg BID, Week 16-56): 0
Subjects with COVID-19 associated AE of interest: SARS-CoV-2 test positive (25 mg BID, Week 16-56): 0
Subjects with treatment-emergent AE: Alanine aminotransferase increased (25 mg BID, Week 16-56): 0
Subjects with treatment-emergent AE: Arthralgia (25 mg BID, Week 16-56): 0
Subjects with treatment-emergent AE: Aspartate aminotransferase increased (25 mg BID, Week 16-56): 0
Subjects with treatment-emergent AE: Vomiting (25 mg BID, Week 16-56): 0
Subjects with treatment-emergent serious AE: Cerebrovascular accident (25 mg BID, Week 16-56): 0
Subjects with treatment-emergent serious AE: Coronary artery disease (25 mg BID, Week 16-56): 0
Subjects with treatment-emergent serious AE: Diverticulitis (25 mg BID, Week 16-56): 0
Subjects with treatment-emergent serious AE: Foot deformity (25 mg BID, Week 16-56): 0
Subjects with treatment-emergent serious AE: General disorders and administration site conditions (25 mg BID, Week 16-56): 0
Subjects with treatment-emergent serious AE: Infections and infestations (25 mg BID, Week 16-56): 0
Subjects with treatment-emergent serious AE: Intervertebral disc protrusion (25 mg BID, Week 16-56): 0
Subjects with treatment-emergent serious AE: Musculoskeletal and connective tissue disorders (25 mg BID, Week 16-56): 0
Subjects with treatment-emergent serious AE: Neoplasms benign, malignant and unspecified (incl cysts and polyps) (25 mg BID, Week 16-56): 0
Subjects with treatment-emergent serious AE: Nervous system disorders (25 mg BID, Week 16-56): 0
Subjects with treatment-emergent serious AE: Non-cardiac chest pain (25 mg BID, Week 16-56): 0
Subjects with treatment-emergent serious AE: Uterine leiomyoma (25 mg BID, Week 16-56): 0
Acrochordon: % of subjects (25 mg BID, through Week 56): (2.4%)
Acrochordon: number of subjects (25 mg BID, through Week 56): 1
Actinic keratosis: number of subjects (25 mg BID, through Week 56): 0
Alopecia: number of subjects (25 mg BID, through Week 56): 0
Asthenia: % of subjects (25 mg BID, through Week 56): (2.4%)
Asthenia: number of subjects (25 mg BID, through Week 56): 1
Asthma: number of subjects (25 mg BID, through Week 56): 0
Atrioventricular block first degree: number of subjects (25 mg BID, through Week 56): 0
Basal cell carcinoma: number of subjects (25 mg BID, through Week 56): 0
Blood and lymphatic system disorders: number of subjects (25 mg BID, through Week 56): 0
Bronchitis chronic: number of subjects (25 mg BID, through Week 56): 0
Bundle branch block right: number of subjects (25 mg BID, through Week 56): 0
Cardiac disorders: % of subjects (25 mg BID, through Week 56): (2.4%)
Cardiac disorders: number of subjects (25 mg BID, through Week 56): 1
Chills: % of subjects (25 mg BID, through Week 56): (2.4%)
Chills: number of subjects (25 mg BID, through Week 56): 1
Cholelithiasis: number of subjects (25 mg BID, through Week 56): 0
Chronic obstructive pulmonary disease: number of subjects (25 mg BID, through Week 56): 0
Coronary artery disease: number of subjects (25 mg BID, through Week 56): 0
Cough: number of subjects (25 mg BID, through Week 56): 0
Decreased appetite: number of subjects (25 mg BID, through Week 56): 0
Depression: number of subjects (25 mg BID, through Week 56): 0
Dermal cyst: number of subjects (25 mg BID, through Week 56): 0
Dermatitis acneiform: number of subjects (25 mg BID, through Week 56): 0
Dermatitis contact: % of subjects (25 mg BID, through Week 56): (2.4%)
Dermatitis contact: number of subjects (25 mg BID, through Week 56): 1
Diabetes mellitus: % of subjects (25 mg BID, through Week 56): (2.4%)
Diabetes mellitus: number of subjects (25 mg BID, through Week 56): 1
Diffuse alopecia: number of subjects (25 mg BID, through Week 56): 0
Dysuria: number of subjects (25 mg BID, through Week 56): 0
Ear and labyrinth disorders: number of subjects (25 mg BID, through Week 56): 0
Endocrine disorders: % of subjects (25 mg BID, through Week 56): (2.4%)
Endocrine disorders: number of subjects (25 mg BID, through Week 56): 1
Eye disorders: % of subjects (25 mg BID, through Week 56): (2.4%)
Eye disorders: number of subjects (25 mg BID, through Week 56): 1
Eyelid skin dryness: % of subjects (25 mg BID, through Week 56): (2.4%)
Eyelid skin dryness: number of subjects (25 mg BID, through Week 56): 1
Fatigue: number of subjects (25 mg BID, through Week 56): 0
General disorders and administration site conditions: % of subjects (25 mg BID, through Week 56): (4.9%)
General disorders and administration site conditions: number of subjects (25 mg BID, through Week 56): 2
Goiter: % of subjects (25 mg BID, through Week 56): (2.4%)
Goiter: number of subjects (25 mg BID, through Week 56): 1
Haemochromatosis: number of subjects (25 mg BID, through Week 56): 0
Hand dermatitis: number of subjects (25 mg BID, through Week 56): 0
Hematuria: number of subjects (25 mg BID, through Week 56): 0
Hepatobiliary disorders: number of subjects (25 mg BID, through Week 56): 0
Hypercholesterolemia: number of subjects (25 mg BID, through Week 56): 0
Hyperglycemia: number of subjects (25 mg BID, through Week 56): 0
Hyperlipidemia: % of subjects (25 mg BID, through Week 56): (2.4%)
Hyperlipidemia: number of subjects (25 mg BID, through Week 56): 1
Hypertension: % of subjects (25 mg BID, through Week 56): (4.9%)
Hypertension: number of subjects (25 mg BID, through Week 56): 2
Hypertransaminasemia: number of subjects (25 mg BID, through Week 56): 0
Hypertriglyceridemia: number of subjects (25 mg BID, through Week 56): 0
Hypoacusis: number of subjects (25 mg BID, through Week 56): 0
Immune system disorders: number of subjects (25 mg BID, through Week 56): 0
Influenza like illness: % of subjects (25 mg BID, through Week 56): (2.4%)
Influenza like illness: number of subjects (25 mg BID, through Week 56): 1
Insomnia: % of subjects (25 mg BID, through Week 56): (2.4%)
Insomnia: number of subjects (25 mg BID, through Week 56): 1
Intertrigo: number of subjects (25 mg BID, through Week 56): 0
